# Data published in PubChem BioAssay AID342 (DTP/NCI, 2004).
# Several values for one entry are separate records, joined by “and”; a condition that tells them apart may be missing. Identical values can stand only once. Square brackets hold non-standard residues; d marks the D form. Peptide text beside a SMILES is read from it. ξ: configuration not given here. Ac5c = NC1(C(=O)O)CCCC1; ξS = NC(CO)C(=O)O
# Tested on: Swiss mice, Sarcoma 180 sc, mean tumor weight T/C
# Test: NCI In Vivo Anticancer Drug Screen. Data for tumor model Sarcoma 180 (subcutaneous) in Swiss mice
# Conditions: endpoint: mean tumor weight, higher = larger tumour
# Summary of the method: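 T/C ratio: treated over vehicle-treated controls, measuring survival or tumor size in transplanted-tumor mice.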
# [1] = dose: 55.0 mg/kg/injection, schedule: Q01DX007 (ip), vehicle: carboxymethylcellulose (CMC)
# [2] = dose: 83.0 mg/kg/injection, schedule: Q01DX007 (ip), vehicle: carboxymethylcellulose (CMC)
# [3] = dose: 125.0 mg/kg/injection, schedule: Q01DX007 (ip), vehicle: carboxymethylcellulose (CMC)
# [4] = dose: 187.5 mg/kg/injection, schedule: Q01DX007 (ip), vehicle: carboxymethylcellulose (CMC)
# [5] = dose: 125.0 mg/kg/injection, schedule: Q01DX007 (ip), vehicle: saline
# [6] = dose: 200.0 mg/kg/injection, schedule: Q01DX007 (ip), vehicle: saline
smiles,measurement,setting,value
CCCCCCCCCCCCOP(N)(=O)OCCCCCCCCCCCC,T/C,"dose: 20.0 mg/kg/injection, schedule: Q01DX007 (ip), vehicle: carboxymethylcellulose (CMC)",73 % of control
same,T/C,[1],86 % of control
same,T/C,"dose: 55.5 mg/kg/injection, schedule: Q01DX007 (ip), vehicle: carboxymethylcellulose (CMC)",49 % of control
same,T/C,"dose: 80.0 mg/kg/injection, schedule: Q01DX007 (ip), vehicle: carboxymethylcellulose (CMC)",103 % of control
same,T/C,[2],71 % of control
same,T/C,"dose: 83.3 mg/kg/injection, schedule: Q01DX007 (ip), vehicle: carboxymethylcellulose (CMC)",54 % of control
same,T/C,"dose: 120.0 mg/kg/injection, schedule: Q01DX007 (ip), vehicle: carboxymethylcellulose (CMC)",54 % of control
same,T/C,[3],42 % of control
same,T/C,[4],22 % of control
CC(=O)[C@@]1(O)CC[C@H]2[C@@H]3CCC4=CC(=O)CC[C@]4(C)[C@@]3(F)[C@@H](O)C[C@@]21C,T/C,"dose: 12.0 mg/kg/injection, schedule: Q01DX007 (sc), vehicle: steriod suspending solution",67 % of control
same,T/C,"dose: 25.0 mg/kg/injection, schedule: Q01DX007 (sc), vehicle: steriod suspending solution",69 % of control
same,T/C,"dose: 55.0 mg/kg/injection, schedule: Q01DX007 (sc), vehicle: steriod suspending solution",40 % of control
same,T/C,"dose: 111.0 mg/kg/injection, schedule: Q01DX007 (sc), vehicle: steriod suspending solution",40 % of control and 42 % of control
same,T/C,"dose: 166.0 mg/kg/injection, schedule: Q01DX007 (sc), vehicle: steriod suspending solution",61 % of control
same,T/C,"dose: 250.0 mg/kg/injection, schedule: Q01DX007 (sc), vehicle: steriod suspending solution",58 % of control
same,T/C,"dose: 375.0 mg/kg/injection, schedule: Q01DX007 (sc), vehicle: steriod suspending solution",44 % of control
NC1(C(=O)O)CCCC1,T/C,"dose: 4.62 mg/kg/injection, schedule: Q#A X014 (ip), vehicle: carboxymethylcellulose (CMC)",86 % of control
same,T/C,"dose: 6.25 mg/kg/injection, schedule: Q#A X014 (ip), vehicle: carboxymethylcellulose (CMC)",72 % of control
same,T/C,"dose: 9.25 mg/kg/injection, schedule: Q#A X014 (ip), vehicle: carboxymethylcellulose (CMC)",101 % of control
same,T/C,"dose: 12.5 mg/kg/injection, schedule: Q#A X014 (ip), vehicle: carboxymethylcellulose (CMC)",101 % of control
same,T/C,"dose: 15.0 mg/kg/injection, schedule: Q01DX007 (ip), vehicle: water",75 % of control
same,T/C,"dose: 18.5 mg/kg/injection, schedule: Q#A X014 (ip), vehicle: carboxymethylcellulose (CMC)",77 % of control
same,T/C,"dose: 25.0 mg/kg/injection, schedule: Q01DX007 (ip), vehicle: saline",75 % of control
same,T/C,"dose: 25.0 mg/kg/injection, schedule: Q#A X014 (ip), vehicle: carboxymethylcellulose (CMC)",75 % of control
same,T/C,"dose: 30.0 mg/kg/injection, schedule: Q01DX007 (ip), vehicle: water",78 % of control
same,T/C,"dose: 33.0 mg/kg/injection, schedule: Q#A X014 (ip), vehicle: saline",56 % of control
same,T/C,"dose: 37.0 mg/kg/injection, schedule: Q#A X014 (ip), vehicle: carboxymethylcellulose (CMC)",50 % of control
same,T/C,"dose: 50.0 mg/kg/injection, schedule: Q01DX007 (ip), vehicle: saline",64 % of control
same,T/C,"dose: 50.0 mg/kg/injection, schedule: Q#A X014 (ip), vehicle: carboxymethylcellulose (CMC)",35 % of control
same,T/C,"dose: 50.0 mg/kg/injection, schedule: Q#A X014 (ip), vehicle: saline",44 % of control
same,T/C,"dose: 60.0 mg/kg/injection, schedule: Q01DX007 (ip), vehicle: water",35 % of control
same,T/C,"dose: 62.0 mg/kg/injection, schedule: Q01DX007 (ip), vehicle: saline",61 % of control
same,T/C,"dose: 75.0 mg/kg/injection, schedule: Q#A X014 (ip), vehicle: saline",23 % of control
same,T/C,"dose: 100.0 mg/kg/injection, schedule: Q01DX007 (ip), vehicle: saline",47 % of control
same,T/C,"dose: 120.0 mg/kg/injection, schedule: Q01DX007 (ip), vehicle: water",22 % of control
same,T/C,[5],30 % of control
same,T/C,[6],22 % of control
O=C(O)C(=O)c1ccc(-c2ccccc2)cc1,T/C,"dose: 4.0 mg/kg/injection, schedule: Q01DX007 (ip), vehicle: carboxymethylcellulose (CMC)",83 % of control
same,T/C,"dose: 8.0 mg/kg/injection, schedule: Q01DX007 (ip), vehicle: carboxymethylcellulose (CMC)",106 % of control
same,T/C,"dose: 16.0 mg/kg/injection, schedule: Q01DX007 (ip), vehicle: carboxymethylcellulose (CMC)",71 % of control
same,T/C,"dose: 32.0 mg/kg/injection, schedule: Q01DX007 (ip), vehicle: carboxymethylcellulose (CMC)",80 % of control
COC1C(OC(N)=O)C(O)C(Oc2ccc3c(O)c(NC(=O)c4ccc(O)c(CC=C(C)C)c4)c(=O)oc3c2C)OC1(C)C (stereo unspecified),T/C,[6],102 % of control
CCN(CC)P(=S)(N1CC1)N1CC1,T/C,"dose: 25.0 mg/kg/injection, schedule: Q01DX007 (ip), vehicle: other",3 % of control
same,T/C,"dose: 50.0 mg/kg/injection, schedule: Q01DX007 (ip), vehicle: other",31 % of control
same,T/C,"dose: 100.0 mg/kg/injection, schedule: Q01DX007 (ip), vehicle: other",1 % of control
same,T/C,"dose: 220.0 mg/kg/injection, schedule: Q01DX007 (ip), vehicle: saline",25 % of control
c1ccc2nc3ccccc3c-2cc1,T/C,"dose: 62.5 mg/kg/injection, schedule: Q01DX007 (ip), vehicle: saline",118 % of control
same,T/C,[5],106 % of control
same,T/C,"dose: 250.0 mg/kg/injection, schedule: Q01DX007 (ip), vehicle: saline",113 % of control
same,T/C,"dose: 750.0 mg/kg/injection, schedule: Q01DX007 (ip), vehicle: saline",85 % of control
same,T/C,"dose: 1000.0 mg/kg/injection, schedule: Q01DX007 (ip), vehicle: saline",68 % of control
CC(=O)Nc1cc2c(cc1Cl)C(=O)c1cc(Cl)ccc1-2,T/C,[1],75 % of control
same,T/C,[2],53 % of control
same,T/C,[3],39 % of control
same,T/C,[4],26 % of control
CC1=C(/C=C/C(C)=N/NC(N)=S)C(C)(C)CCC1,T/C,"dose: 20.0 mg/kg/injection, schedule: Q01DX007 (ip), vehicle: other",48 % of control and 66 % of control
NC(CO)C(=O)NC1(C(=O)O)CCCC1 (stereo unspecified) (H-[ξS]-[Ac5c]-OH),T/C,"dose: 110.0 mg/kg/injection, schedule: Q01DX007 (ip), vehicle: carboxymethylcellulose (CMC)",84 % of control
same,T/C,"dose: 167.0 mg/kg/injection, schedule: Q01DX007 (ip), vehicle: carboxymethylcellulose (CMC)",49 % of control
same,T/C,"dose: 250.0 mg/kg/injection, schedule: Q01DX007 (ip), vehicle: carboxymethylcellulose (CMC)",21 % of control
Cc1nc(C(N)=O)nc2ccccc12,T/C,"dose: 62.5 mg/kg/injection, schedule: Q#A X014 (ip), vehicle: methylcellulose (MC)",64 % of control and 81 % of control
same,T/C,"dose: 200.0 mg/kg/injection, schedule: Q01DX007 (ip), vehicle: carboxymethylcellulose (CMC)",64 % of control and 65 % of control
same,T/C,"dose: 250.0 mg/kg/injection, schedule: Q#A X014 (ip), vehicle: methylcellulose (MC)",36 % of control
O=C(N/N=C/C=C/c1ccccc1)[C@H](O)[C@@H](O)C(=O)N/N=C/C=C/c1ccccc1,T/C,"dose: 111.0 mg/kg/injection, schedule: Q#A X014 (ip), vehicle: saline",57 % of control
same,T/C,"dose: 166.5 mg/kg/injection, schedule: Q#A X014 (ip), vehicle: saline",40 % of control
same,T/C,"dose: 250.0 mg/kg/injection, schedule: Q#A X014 (ip), vehicle: saline",57 % of control
O=CNC(Cc1cccc(N(CCCl)CCCl)c1)C(=O)O (stereo unspecified),T/C,"dose: 2.5 mg/kg/injection, schedule: Q#A X014 (ip), vehicle: methylcellulose (MC)",45 % of control
same,T/C,"dose: 4.5 mg/kg/injection, schedule: Q#A X014 (ip), vehicle: methylcellulose (MC)",21 % of control and 25 % of control
same,T/C,"dose: 5.0 mg/kg/injection, schedule: Q#A X014 (ip), vehicle: methylcellulose (MC)",52 % of control
same,T/C,"dose: 7.5 mg/kg/injection, schedule: Q#A X014 (ip), vehicle: methylcellulose (MC)",18 % of control
same,T/C,"dose: 15.0 mg/kg/injection, schedule: Q#A X014 (ip), vehicle: methylcellulose (MC)",20 % of control
C=CC(CN1CC1)OC(C)=O (stereo unspecified),T/C,"dose: 0.88 mg/kg/injection, schedule: Q01DX007 (ip), vehicle: carboxymethylcellulose (CMC)",94 % of control
same,T/C,"dose: 1.25 mg/kg/injection, schedule: Q01DX007 (ip), vehicle: carboxymethylcellulose (CMC)",68 % of control
same,T/C,"dose: 1.75 mg/kg/injection, schedule: Q01DX007 (ip), vehicle: carboxymethylcellulose (CMC)",97 % of control
same,T/C,"dose: 2.3 mg/kg/injection, schedule: Q01DX007 (ip), vehicle: carboxymethylcellulose (CMC)",58 % of control
same,T/C,"dose: 3.5 mg/kg/injection, schedule: Q01DX007 (ip), vehicle: carboxymethylcellulose (CMC)",56 % of control
same,T/C,"dose: 7.0 mg/kg/injection, schedule: Q01DX007 (ip), vehicle: carboxymethylcellulose (CMC)",50 % of control
C=CCCCCCCCCC(=O)O,T/C,"dose: 7.8 mg/kg/injection, schedule: Q01DX007 (ip), vehicle: saline",109 % of control
same,T/C,"dose: 15.6 mg/kg/injection, schedule: Q01DX007 (ip), vehicle: saline",118 % of control
same,T/C,"dose: 31.3 mg/kg/injection, schedule: Q01DX007 (ip), vehicle: saline",122 % of control
same,T/C,[5],90 % of control
CN1Cc2c(ccc3c2OCO3)[C@@H]2[C@H](O)Cc3cc4c(cc3[C@@H]21)OCO4,T/C,"dose: 150.0 mg/kg/injection, schedule: Q01DX007 (ip), vehicle: carboxymethylcellulose (CMC)",93 % of control
